Results on one compound are retold here after patent publication US20040266794A1, “Pramipexole for the reduction of excessive food intake for children” (Boehringer Ingelheim International GmbH, priority 2003, published 2004).

Assay [1] deals with mice (Strain: C57BL/6). Here is the method: (§1) 10 mice (Strain: C57BL/6) were deprived of food for 24 hours while being given free access to drinking water.
Assay [2] concerns mice (Strain: C57BL/6). The conditions noted are these: C57BL/6 mice fasted 24 hours; single application given on successive days, 2.5 mg/kg of body weight s.c.; food consumption over 4 days; vs physiological saline; FIG. 1. As for the experimental part: Test method by single administration:
as §1
20 minutes before the end of the fasting period pramipexol was administered (2.5 mg/kg of body weight s.c.). The control group, also 10 mice, were given physiological saline solution, the solvent used for pramipexol. Then the animals were offered food and the food consumption over 4 days in 30 minute cycles was measured.

The structures appear in SMILES notation. Like-named read-outs stand apart in the source and are kept apart here.

Regarding `CCCN[C@H]1CCc2nc(N)sc2C1` [Pramipexol], the food intake result in assay [1] (C57BL/6 mice fasted 24 hours, continuous administration by alzet Mini-osmotic pump s.c., 2.5 mg of pramipexol/24 hours, measured for 4 days, vs physiological saline, FIG. 1) is listed as “permanent, statistically highly significant inhibition in food intake”; in assay [2] it was “did not significantly reduce food intake”. Also, the change in weight entry in assay [1] (C57BL/6 mice, continuous (long term) administration by osmotic pump s.c., measured daily over 22 days, administration ending after 14 days, FIG. 2) is listed as “permanent weight reduction was observed which was statistically highly significant even after the pramipexol treatment had ended”.
